Experimental findings from patent US7851650B2, “Compounds for treating inflammation and pain” (Olatec Industries LLC, priority 2009, dated 2010) are described below.

This experiment relates to arachidonic acid induced ear swelling. Kind of experiment: topical arachidonic acid induced ear swelling model in mice. The note with it: male ICR mice, applied 30 min before and 15 min after arachidonic acid, active compound 2 mg/ear x 2, indomethacin 3 mg/ear x 2, relative to lauryl lactate vehicle. Type of experiment: in vivo. The method, then:
Male ICR mice weighing 22±2 g were used in the experiment. Arachidonic acid (2 mg in 20 μL acetone) was applied topically onto the anterior and posterior surfaces of the right ear of test animals. […] Ear swelling was then measured using a Dyer model micrometer gauge at 60, 90 and 120 minutes after arachidonic acid induction of ear edema as an index of inflammation.

For `COc1ccc2c(c1)c(CC(=O)O)c(C)n2C(=O)c1ccc(Cl)cc1` [Indomethacin/lauryl lactate, indomethacin], the “%, ear swelling inhibition after arachidonic acid, 60 min.” value was determined as 71%; the “%, ear swelling inhibition after arachidonic acid, 90 min.” value was determined as 65%; the “%, ear swelling inhibition after arachidonic acid, 120 min.” value came to 70%.

With `CS(=O)(=O)CCC(NCl)C(=O)O` (stereo not drawn) [Active compound/lauryl lactate, 2-N chloro-4-methylsulfonyl-butyric acid], the “%, ear swelling inhibition after arachidonic acid, 60 min.” value was found to be 33%; the “%, ear swelling inhibition after arachidonic acid, 90 min.” value is 31%; the “%, ear swelling inhibition after arachidonic acid, 120 min.” value turned out to be 34%.
